One assay concerns the target T1, Heparanase (Homo sapiens, UniProt Q9Y251).
T1 sequence (Q9Y251 whole entry): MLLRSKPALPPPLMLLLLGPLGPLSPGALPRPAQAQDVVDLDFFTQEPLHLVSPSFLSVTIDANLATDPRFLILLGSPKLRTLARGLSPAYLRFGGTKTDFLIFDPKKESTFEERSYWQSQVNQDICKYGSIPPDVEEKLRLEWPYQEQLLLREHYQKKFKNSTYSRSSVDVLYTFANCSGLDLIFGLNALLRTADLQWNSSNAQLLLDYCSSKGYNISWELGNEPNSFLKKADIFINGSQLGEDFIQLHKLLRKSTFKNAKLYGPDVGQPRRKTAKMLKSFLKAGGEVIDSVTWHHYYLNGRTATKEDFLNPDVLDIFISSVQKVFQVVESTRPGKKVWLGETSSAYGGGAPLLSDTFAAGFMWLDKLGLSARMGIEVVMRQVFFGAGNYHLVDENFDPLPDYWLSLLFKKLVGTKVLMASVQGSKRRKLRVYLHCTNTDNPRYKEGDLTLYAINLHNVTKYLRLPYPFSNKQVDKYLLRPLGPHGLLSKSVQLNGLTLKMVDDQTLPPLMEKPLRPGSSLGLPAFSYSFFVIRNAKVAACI
Put plainly: Inhibition of Heparanase-1 (unknown origin) by HTRF method.

Assay [1] is described as follows: Binding affinity to bovine liver beta-glucuronidase. On the set-up: species or system Bos taurus.

SMILES strings stand for the structures.

With `O=C(O)[C@@H]1[C@@H](O)[C@H](O)[C@@H](O)c2nc(CCc3ccc(C(F)(F)F)cc3)cn21`, the midpoint of inhibition against Heparanase, the IC50, lay at 3.41 µM.
Consider `O=C(O)[C@@H]1[C@@H](O)[C@H](O)[C@@H](O)c2nccn21`, for which the Ki – broadly, the equilibrium dissociation constant of an inhibitor or competing ligand from its target – in assay [1] came out at 0.012 µM.
In the case of `CCCCCCCCCCCCCCCc1cc(O[C@@H]2O[C@H](C(=O)O)[C@@H](O)[C@H](O)[C@H]2O)cc(O)c1C(=O)Oc1cc(C)c(C(=O)O)c(O)c1`, on Heparanase, the IC50 (as a rule, the midpoint of a concentration-inhibition curve) worked out at 9.19 µM.

Values taken from ChEMBL document CHEMBL5223138, “Lead identification of novel tetrahydroimidazo[1,2-a]pyridine-5-carboxylic acid derivative as a potent heparanase-1 inhibitor” (Bioorg Med Chem Lett, 2023).
